Among the data in patent US20240101528A1, “SUBSTITUTED PYRAZOLO PIPERIDINE CARBOXYLIC ACIDS” (BAYER AKTIENGESELLSCHAFT, priority 2020, published 2024) are MEC, AUCnorm and F values, retold here.

Series [1] deals with T1, recombinant guanylate cyclase reporter cell line (Rattus norvegicus, UniProt P20595).
T1 construct: expressed in transfected cells
T1 sequence (P20595 1-619): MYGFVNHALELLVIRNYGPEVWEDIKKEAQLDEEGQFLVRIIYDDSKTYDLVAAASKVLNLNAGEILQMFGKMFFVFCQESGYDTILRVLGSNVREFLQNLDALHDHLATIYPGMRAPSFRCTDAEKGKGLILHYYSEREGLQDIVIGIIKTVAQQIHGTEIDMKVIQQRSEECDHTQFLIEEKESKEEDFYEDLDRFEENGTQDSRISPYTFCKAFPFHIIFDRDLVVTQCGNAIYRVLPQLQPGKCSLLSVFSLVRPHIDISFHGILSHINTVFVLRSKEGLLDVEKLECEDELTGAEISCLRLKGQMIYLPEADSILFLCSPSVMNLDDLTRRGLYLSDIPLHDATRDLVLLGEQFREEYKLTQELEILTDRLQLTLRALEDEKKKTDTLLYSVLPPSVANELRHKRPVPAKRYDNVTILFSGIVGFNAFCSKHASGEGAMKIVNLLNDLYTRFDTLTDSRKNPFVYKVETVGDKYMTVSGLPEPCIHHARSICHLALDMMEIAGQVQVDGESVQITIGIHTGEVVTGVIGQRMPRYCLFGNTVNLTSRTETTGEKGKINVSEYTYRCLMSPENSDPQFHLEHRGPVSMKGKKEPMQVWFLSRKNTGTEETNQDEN
T1 sequence (P19686 1-690 partner): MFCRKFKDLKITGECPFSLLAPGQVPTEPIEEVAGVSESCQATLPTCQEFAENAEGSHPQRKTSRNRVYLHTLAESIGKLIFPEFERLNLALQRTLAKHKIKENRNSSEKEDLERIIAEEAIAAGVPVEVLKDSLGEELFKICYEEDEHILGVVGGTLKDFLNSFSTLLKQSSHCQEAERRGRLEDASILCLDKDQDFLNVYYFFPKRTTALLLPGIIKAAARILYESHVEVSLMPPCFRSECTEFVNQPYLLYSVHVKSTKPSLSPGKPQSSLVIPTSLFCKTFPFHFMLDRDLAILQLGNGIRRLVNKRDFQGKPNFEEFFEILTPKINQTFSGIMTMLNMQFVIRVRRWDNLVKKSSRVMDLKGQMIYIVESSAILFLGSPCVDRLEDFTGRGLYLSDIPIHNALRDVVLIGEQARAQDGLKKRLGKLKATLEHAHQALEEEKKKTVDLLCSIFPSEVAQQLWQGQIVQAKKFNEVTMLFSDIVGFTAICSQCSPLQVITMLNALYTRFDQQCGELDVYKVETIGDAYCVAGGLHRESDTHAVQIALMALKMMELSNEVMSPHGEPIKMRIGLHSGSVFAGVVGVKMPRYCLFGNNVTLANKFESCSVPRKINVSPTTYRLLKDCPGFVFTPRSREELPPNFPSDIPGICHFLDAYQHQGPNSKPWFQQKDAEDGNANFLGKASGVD
Kind of series: Effect on a recombinant guanylate cyclase reporter cell line. To be noted: minimum effective concentration. Type of series: cell-based. The procedure: B-1. Effect on a Recombinant Guanylate Cyclase Reporter Cell Line
The cellular activity of the compounds according to the invention was determined using a recombinant guanylate cyclase reporter cell line, as described in F. Wunder et al., Anal. Biochem. 339, 104-112 (2005).

A short description of series [2]: Pharmacokinetic parameters following oral administration in rats. It is filed as in vivo, male Wistar rats. How it is done:
(§1) B-5. Determination of Pharmacokinetic Parameters Following Intravenous and Oral Administration
(§2) The pharmacokinetic parameters of the compounds according to the invention were determined in male Wistar rats and/or in female beagles and/or in cynomolgus monkeys and/or in male CD-1 mice. Intravenous administration in the case of mice and rats was carried out by means of a species-specific plasma/DMSO formulation, and in the case of dogs and monkeys by means of a water/PEG400/ethanol formulation. In all species, oral administration of the dissolved substance was performed via gavage, based on a water/PEG400/ethanol formulation.
(§3) An internal standard (which may also be a chemically unrelated substance) was added to the samples of the compounds of the invention, calibration samples and qualifiers, and there followed protein precipitation by means of acetonitrile in excess. Addition of a buffer solution matched to the LC conditions, and subsequent vortexing, was followed by centrifugation at 1000 g. The supernatant was analysed by LC-MS/MS using C18 reversed-phase columns and variable mobile phase mixtures. The substances were quantified via the peak heights or areas from extracted ion chromatograms of specific selected ion monitoring experiments.
(§4) The plasma concentration/time plots determined were used to calculate the pharmacokinetic parameters such as AUC, Cmax, t1/2 (terminal half-life), F (bioavailability), MRT (mean residence time) and CL (clearance), by means of a validated pharmacokinetic calculation program.
(§5) Since the substance quantification was performed in plasma, it was necessary to determine the blood/plasma distribution of the substance in order to be able to adjust the pharmacokinetic parameters correspondingly. For this purpose, a defined amount of substance was incubated in K3 EDTA whole blood of the species in question in a rocking roller mixer for 20 min. After centrifugation at 1000 g, the plasma concentration was measured (by means of LC-MS/MS; see above) and determined by calculating the ratio of the Cblood/Cplasma value.

Series [3] is described as follows: Pharmacokinetic parameters following intravenous administration in rats. Type of series: in vivo, male Wistar rats. The settings on record: intravenous administration. The procedure: as §1, §2, §3, §4, §5

Molecules are shown by their SMILES.

On to `O=C(O)c1cnn(C2CCCN(c3cc(Cl)ccc3-c3ccc(N4CCN(CC(F)(F)F)CC4)cc3)C2)c1C(F)F` (single isomer, unassigned; enantiomer 2) [Example 21, 1-[1-[5-Chloro-2-[4-[4-(2,2,2-trifluoroethyl)piperazin-1-yl]phenyl]phenyl]-3-piperidyl]-5-(difluoromethyl)pyrazole-4-carboxylic acid (Enantiomer 2)], for which the MEC in series [1] was determined as 1.6 nM. The AUCnorm turned out to be 4.04 kg·h/L in series [2] and 7.23 kg·h/L in series [3]. Moreover, the F in series [2] (bioavailability) came to 56.1%.
